From patent publication US9738626B2, “Antagonists of prostaglandin EP3 receptor” (Pfizer Inc., priority 2014, dated 2017) come the findings set out here.

Molecules are shown by their SMILES.

What is called Ki is the equilibrium dissociation constant of an inhibitor or competing ligand from its target. The term IC50 denotes the concentration at which inhibition is half-maximal.

Experiment [1] addresses human EP3 receptor (Homo sapiens (Human), UniProt P43115). The experiment can be described thus: EP3 Radioligand SPA Binding Assay. The following applies: [3H]-PGE2 displacement, Millipore EP3 Chem1 membranes; geometric mean; Ki from IC50 by Cheng-Prusoff. As to the method: To measure the ability of test compounds in the present invention to bind to the human EP3 receptor, and therefore have the potential to antagonize PGE2 activity, radioligand displacement assays were performed. Compound affinity was expressed as a Ki value, defined as the concentration of compound required to decrease [^3H] PGE2 binding by 50% for a specific membrane batch at a given concentration of radioligand.
Test compounds were half log serially diluted in 100% DMSO (J. T. Baker #922401). 1 μL of each compound was added to appropriate wells of a 384-well plate (Matrix Cat #4322). Unlabeled PGE2 (Tocris Cat #2296) at a final concentration of 1 μM was used to determine non-specific binding. 1 μL of 100% DMSO (J. T. Baker #922401) was used to determine total binding. Millipore EP3 Chem1 membranes (prepared in-house from cell paste derived from the Millipore ChemiSCREEN™ Human Recombinant EP3 Prostanoid Receptor Calcium-Optimized Stable Cell Line (Millipore Cat # HTS092C, http://www.millipore.com/catalogue/item/hts092c)) were thawed and diluted in binding buffer (50 mM Hepes pH 7.4 (Lonza Cat #17-737), 5 mM MgCl2 (Sigma-M1028), and 0.1% BSA (Sigma A-7409)) to a final concentration of 1 μg/25 μL. 25 μL of diluted membranes were added to prepared compound plates. WGA coated PVT SPA Beads (Perkin Elmer Cat # RPNQ0060) were diluted in binding buffer to a concentration of 4 μg/ul, and 25 μL of the SPA bead mixture was then added to each well for a final assay concentration of 100 μg/well. [^3H]-PGE2 (Perkin Elmer Cat #NET428) was diluted in binding buffer to a concentration of […], and […] was added to all wells for a final assay concentration of 1.125 nM. Plates were incubated for 30 minutes at r.t. (approximately 25° C.) with shaking. Radioactivity associated with each well was measured after a 10 hour incubation using a Wallac Trilux MicroBeta plate-based scintillation counter and a normalized protocol at 1 minute read/well. The Kd for [^3H]-PGE2 was determined by carrying out saturation binding, with data analysis by non-linear regression, fit to a one-site hyperbola (GraphPad Prism®). IC50 determinations were made from competition curves, analyzed with a proprietary curve fitting program (SIGHTS), similar to GraphPad PRISM® and a 4-parameter logistic dose response equation. Ki values were calculated from IC50 values, using the Cheng-Prusoff equation.
Table 5 below provides the Ki values of Examples for the binding affinity against human EP3 in accordance with the above-described assay. Results are reported as geometric mean Ki values, where the example is identified as a free base or designated salt that is made as a solution for the experiment and N is the number of samples tested for that example and is the sum of the forms identified with the corresponding number of the respective form in parentheses.

Experiment [2] deals with human prostaglandin E3 receptor (EP3) (Homo sapiens (Human), UniProt P43115). The experiment can be described thus: Functional activity: cellular cAMP HTRF assay, antagonism of sulprostone. It counts as cell-based. The following applies: CHO-K1 cells expressing human EP3; cAMP with 10 nM sulprostone and forskolin; geometric mean. As to the method: The functional activity of two Examples was determined by measuring the effect on cellular cAMP levels, under conditions whereby antagonism of the EP3 receptor could be measured. Compound activity was expressed as an IC50 value, defined as the concentration of compound required to decrease agonist (sulprostone) activity by 50%. CHO-K1 cells expressing human prostaglandin E3 receptor (EP3, DiscoveRx #95-0159C2) were maintained in Ham's F-12 Nutrient Mixture (Invitrogen #11765-054) containing L-Glutamine (Gibco #25030-081), Geneticin (Gibco #10131-027), Pen Strep (Gibco #15070-063) and 10% heat-inactivated fetal bovine serum (Sigma #F4135). […] Cellular cAMP levels were determined using a Homogeneous Time-Resolved Fluorescence (HTRF) cAMP detection kit (cAMP HI-Range Assay Kit; CisBio #62AM6PEJ). […] The assay plates were then held at r.t. and after 60 minutes, changes in the HTRF signal were read with an Envision 2104 multi-label plate reader using excitation of 330 nm and emissions of 615 and 665 nm. Raw data were converted to nM cAMP by interpolation from a cAMP standard curve (as described in the cAMP detection kit protocol) and IC50 determinations were made from the response curves analyzed with a curve fitting program, similar to GraphPad PRISM® and using a 4-parameter logistic dose response equation. […]
A general note: In TR-FRET formats the signal depends on donor and acceptor labels being close together.

Sequence of human EP3 receptor (P43115 whole entry): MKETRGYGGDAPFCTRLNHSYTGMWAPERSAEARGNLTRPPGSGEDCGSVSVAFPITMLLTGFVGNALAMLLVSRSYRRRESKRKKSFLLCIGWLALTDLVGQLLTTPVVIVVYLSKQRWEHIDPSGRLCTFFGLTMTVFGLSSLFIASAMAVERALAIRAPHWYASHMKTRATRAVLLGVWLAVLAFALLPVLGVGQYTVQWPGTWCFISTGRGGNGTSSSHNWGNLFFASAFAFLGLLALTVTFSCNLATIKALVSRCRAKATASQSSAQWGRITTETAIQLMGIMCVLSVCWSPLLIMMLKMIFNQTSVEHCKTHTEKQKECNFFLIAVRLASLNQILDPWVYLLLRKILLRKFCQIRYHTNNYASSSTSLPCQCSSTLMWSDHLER
Sequence of human prostaglandin E3 receptor (EP3) (P43115 whole entry): as above

`C[C@]1(c2ccc(-c3cc(Cl)c4cccnc4c3)[nH]c2=O)CCCNC1=O` [Example 4, (R)-6-(5-Chloroquinolin-7-yl)-3-(3-methyl-2-oxopiperidin-3-yl)pyridin-2(1H)-one]: affinity in experiment [1] was put at a Ki of 8.9 nM.

`Cc1cccc2ncc(-c3ccc([C@@]4(C)CCCNC4=O)c(=O)[nH]3)cc12` [Example 1, (R)-3-(3-Methyl-2-oxopiperidin-3-yl)-6-(5-methylquinolin-3-yl)pyridin-2(1H)-one] returned a Ki in experiment [1] of 3.3 nM. In experiment [2], this molecule yielded an IC50 of 30.8 nM.

`C[C@]1(c2ccc(-c3cc(C4CC4)c4cccnc4c3)[nH]c2=O)CCCNC1=O` [Example 5, (R)-6-(5-Cyclopropylquinolin-7-yl)-3-(3-methyl-2-oxopiperidin-3-yl)pyridin-2(1H)-one] registered a Ki in experiment [1] of 7.3 nM.

In experiment [1], `C[C@]1(c2ccc(-c3cc(F)c4cccnc4c3)[nH]c2=O)CCCNC1=O` [Example 6, (R)-6-(5-Fluoroquinolin-7-yl)-3-(3-methyl-2-oxopiperidin-3-yl)pyridin-2(1H)-one] returned a Ki of 48.6 nM. This Ki is about 6.7-fold higher than that of the molecule before.

`Cc1cc(-c2ccc([C@@]3(C)CCCNC3=O)c(=O)[nH]2)cc2ncccc12` [Example 2, (R)-3-(3-Methyl-2-oxopiperidin-3-yl)-6-(5-methylquinolin-7-yl)pyridin-2(1H)-one] displayed a Ki in experiment [1] of 7.2 nM.

The molecule `CCc1cc(-c2ccc([C@@]3(C)CCCNC3=O)c(=O)[nH]2)cc2ncccc12` [Example 3, (R)-6-(5-Ethylquinolin-7-yl)-3-(3-methyl-2-oxopiperidin-3-yl)pyridin-2(1H)-one] showed a Ki in experiment [1] of 4.6 nM. This Ki is about 1.6-fold lower than that of the molecule before.

In the case of `Cc1cccc2ncc(-c3ccc([C@@]4(C)CCNC4=O)c(=O)[nH]3)cc12` [Example 7, (R)-3-(3-Methyl-2-oxopyrrolidin-3-yl)-6-(5-methylquinolin-3-yl)pyridin-2(1H)-one], the Ki in experiment [1] came out at 18.6 nM. Besides, in experiment [2], half-maximal inhibition (IC50) required 34.1 nM.
